Experimental data reported in patent US6992078B2, “Plant extracts and alkaloids having antitussive activity” (The Chinese University of Hong Kong, priority 2002, dated 2006).
Entries after “also recorded” stand apart in the source; their conditions may differ.

Experiments:
[1] = system: citric acid-induced cough; assay: Effect of receptor antagonists on the antitussive activity of compound A in vivo; set-up: species or system guinea pig; details: mean ± SEM
Procedure: Further studies were conducted for the delineation of the mechanisms of antitussive activity produced by the representative Stemona alkaloid, compound A. Similarly, the sensitive animals were selected after the first citric acid challenge and allowed to recover for 24 hours. During the second challenge, animals were treated with a subcutaneous injection of different antagonists at different times prior to intraperitoneal administration of compound A (50 or 100 mg/kg). The antagonists examined included SCH 50911 (GABAB receptor antagonist) with a 40 min pretreatment at a dose of 10 mg/kg, WAY-100635 (5-HT1A receptor antagonist) with a 60 min pretreatment at a dose of 1 mg/kg, and haloperidol (Dopamine, D2 receptor antagonist) with a 45 min pretreatment at a dose of 1 mg/kg. In addition, naloxone (nonselective opioid receptor antagonist) was administered subcutaneously at a dose of 5 mg/kg at 20 min after intraperitoneal administration of compound A (30 and 100 mg/kg). The effects of these antagonists on the antitussive activity of compound A were assessed by comparison of the changes in cough episodes and cough latency between animal groups administrated with compound A alone and concurrent administration of compound A and each antagonist tested. Furthermore, in a parallel study, the same treatment with naloxone was also conducted in the animals pretreated with intraperitoneal administration of codeine (30 mg/kg) for the positive control.

δ2-opioid receptor = δ2-opioid receptor (Homo sapiens, UniProt P41143); assay: Radiolabeled ligand binding assay, [3H]Naltrindole; details: 10 μM, Opioid δ2, Human recombinant
Procedure: (§1) The representative Stemona alkaloid, compound A, was subjected to the following primary receptor binding assays. The standard radiolabeled ligand binding experiments were performed at the concentration of 10 μM in duplicate by Novascreen Biosciences Crop. (7170 Standard Drive, Hanover, Md. 21076, USA). The tested receptors included all currently well-known receptors involved in producing the antitussive activity, for example, [^3H]Deltorphin (δ1-opioid receptor), [^3H]Naltrindole (δ2-opioid receptor), [^3H]DAMGO (μ-opioid receptor), [^3H]U69593 (κ1-opioid receptor), […] (GABAB receptor), [^3H]8-OH-DPAT (5HT1A receptor), and […] (Dopamine D2-receptor). […] Therefore, the results obtained from both in vivo and in vitro studies confirmed that the antitussive activity of all five effective novel Stemona alkaloids and neotuberostemonine are not involved in opiate receptor pathways.

[2] = system: all receptors examined (opioid δ1, δ2, κ, μ, GABAB, 5-HT1A, Dopamine D2); assay: In vitro receptor binding assays, summary over all receptors examined; details: 10 μM, radiolabeled ligand binding
Procedure: as §1

δ1-opioid receptor = target: T1, δ1-opioid receptor (Rattus norvegicus, UniProt P33533); assay: Radiolabeled ligand binding assay, [3H]Deltorphin; details: 10 μM, Opioid δ1, Rat forebrain, [3H]Deltrophin
T1 construct: Rat forebrain; tissue Novascreen Biosciences (contract assay); host or cells: rat forebrain
Procedure: as §1

Dopamine D2-receptor = assay: Radiolabeled ligand binding assay, [3H]Glibenclamide; set-up: species or system Rat; key to Affinity: ± indicates slight but not significant inhibition on ligand binding; details: 10 μM, Dopamine D2, Rate striatum
Procedure: as §1

GABAB receptor = target: T2, GABAB receptor (Rattus norvegicus, UniProt Q9Z0U4); assay: Radiolabeled ligand binding assay, [3H]CGP 54626A; details: 10 μM, Rat cortex
T2 construct: Novascreen Biosciences (contract assay)
Procedure: as §1

κ1-opioid receptor = target: T3, κ1-opioid receptor (Cavia porcellus, UniProt P41144); assay: Radiolabeled ligand binding assay, [3H]U-69593; details: 10 μM, Opioid κ, Guinea pig cerebellum
T3 construct: Novascreen Biosciences (contract assay)
Procedure: as §1

μ-opioid receptor = target: T4, μ-opioid receptor (Rattus norvegicus, UniProt P33535); assay: Radiolabeled ligand binding assay, [3H]DAMGO; details: 10 μM, Rat forebrain
T4 construct: Novascreen Biosciences (contract assay)
Procedure: as §1

5HT1A receptor = assay: Radiolabeled ligand binding assay, [3H]8-OH-DPAT; details: 10 μM, Bovine hippocampus
Procedure: as §1

[3] = system: citric acid-induced cough; assay: Citric acid-induced cough in guinea pigs (antitussive activity); assay type: in vivo, guinea pig; details: for cough episodes (result in words): citric acid-induced cough; for ED50 value (antitussive): comparative study compound A vs codeine (positive control), i.p.; for rank order of antitussive potency: guinea pig citric acid cough model; for % Cough Episode (Composed with Vehicle Control): mean ± SEM
Procedure: In another embodiment, a method is provided for screening for a substance that inhibits coughing activity. For example, a guinea pig is challenged with 0.5 M citric acid. Those producing more than 10 cough episodes during a first citric acid challenge are selected to be sensitive to citric acid induction and are used for further antitussive tests. The number of coughs and the cough latency in the first challenge animal are recorded as the basal level control. After 48 hours of recovery, the sensitive guinea pigs are selected and are randomly divided into different group, and then pretreated with either intraperitoneal or oral administration. For the intraperitoneal administration, the administration can be of a aqueous extract (0.3-3 g/kg), a total alkaloid extract (25-150 mg/kg), an alkaloid, for example compound A (10, 30, 50, and 100 mg/kg), or compounds B, C, D, F, G, H (133 μmol/kg), for 30 min, or of an extract suspected of having antitussive activity. For the oral administration, the administration can be of compound A or E (400 μmol/kg) for 60 min, or of an extract suspected of having antitussive activity. A second citric acid exposure is then conducted. Antitussive activity is evaluated in each treated animal as the reduction of coughs and the increase of cough latency, as compared to the basal level control.
The method previously described by Gallico et al. (1994) was adopted with the following modifications. Unrestrained guinea pigs were placed individually in a hermetically sealed transparent Perspex chamber (25 cm×12 cm×12 cm), and exposed to a nebulized aqueous solution of 0.5 M citric acid for 8 min. An ultrasonic nebulizer was used (OMRON NE-U12, Tokyo, Japan) that produced an aerosol with particles having a mass median diameter of 1˜5 μm. Approximately 0.5 ml of 0.5 M citric acid solution was nebulized per minute. During the exposure, the guinea pigs were continuously monitored by a trained observer. The episodes and latency of coughing in 8 min were detected and counted by the observer. Cough sounds were recorded concurrently and amplified via a microphone placed in the chamber. The sound waves were analyzed by a personal computer by using Cool Edit 2000 software (Syntrillium, Phenix, USA). Therefore, cough counting was performed based on both acoustic data and human observations, and in this manner the reduction or inhibition of coughing (i.e., antitussive activity) was measured.
The guinea pigs were first challenged with 0.5 M citric acid. Those producing more than 10 cough episodes during the first citric acid challenge were selected to be sensitive to citric acid induction and were used for the further antitussive tests. The number of coughs and the cough latency in the first challenge were recorded as the basal level control. After 48 hours of recovery, the sensitive guinea pigs were selected and were randomly divided into different groups with at least four guinea pigs in each group, and then pretreated with intraperitoneal administration of the aqueous extract (0.3-3 g/kg), the total alkaloid extract (25-150 mg/kg), compound A (10, 30, 50, and 100 mg/kg), and compounds B, C, D, F, G, H (133 μmol/kg), for 30 min before the second citric acid exposure. Antitussive activity was evaluated in each treated animal as the reduction of coughs and the increase of cough latency, as compared to the basal level control. Furthermore, the same antitussive test was also performed with oral administration of compounds A and E (400 μmol/kg). In addition, as a positive control, the antitussive activity of codeine (5, 10 and 30 mg/kg, i.p.) was also determined in a parallel study.

[4] = ip, 133 μmol/kg, 30 min before second citric acid exposure, guinea pig
[5] = po, 400 μmol/kg, 60 min before second citric acid exposure, guinea pig

Sequence of δ2-opioid receptor (P41143 whole entry): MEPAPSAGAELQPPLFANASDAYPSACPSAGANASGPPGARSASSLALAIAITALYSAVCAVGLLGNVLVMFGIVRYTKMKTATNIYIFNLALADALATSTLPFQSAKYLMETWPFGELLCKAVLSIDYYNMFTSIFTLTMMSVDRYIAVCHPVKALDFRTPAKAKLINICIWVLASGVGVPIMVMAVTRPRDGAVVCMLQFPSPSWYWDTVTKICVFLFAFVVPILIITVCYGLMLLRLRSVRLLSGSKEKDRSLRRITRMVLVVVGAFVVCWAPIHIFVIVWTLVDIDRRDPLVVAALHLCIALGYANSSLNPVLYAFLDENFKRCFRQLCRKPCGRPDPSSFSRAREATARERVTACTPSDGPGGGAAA
T4 sequence (P33535 whole entry): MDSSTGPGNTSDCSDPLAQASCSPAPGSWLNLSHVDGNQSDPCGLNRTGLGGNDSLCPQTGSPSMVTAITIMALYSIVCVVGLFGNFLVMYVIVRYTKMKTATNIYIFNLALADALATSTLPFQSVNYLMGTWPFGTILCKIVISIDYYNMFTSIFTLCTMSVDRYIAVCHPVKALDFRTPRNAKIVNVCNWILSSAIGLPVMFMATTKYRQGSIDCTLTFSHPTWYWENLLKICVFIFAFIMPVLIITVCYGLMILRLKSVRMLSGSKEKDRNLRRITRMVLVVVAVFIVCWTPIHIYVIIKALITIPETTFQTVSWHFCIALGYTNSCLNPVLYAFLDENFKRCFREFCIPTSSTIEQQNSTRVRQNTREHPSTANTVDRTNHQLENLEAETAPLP
T2 sequence (Q9Z0U4 17-960 limits assumed): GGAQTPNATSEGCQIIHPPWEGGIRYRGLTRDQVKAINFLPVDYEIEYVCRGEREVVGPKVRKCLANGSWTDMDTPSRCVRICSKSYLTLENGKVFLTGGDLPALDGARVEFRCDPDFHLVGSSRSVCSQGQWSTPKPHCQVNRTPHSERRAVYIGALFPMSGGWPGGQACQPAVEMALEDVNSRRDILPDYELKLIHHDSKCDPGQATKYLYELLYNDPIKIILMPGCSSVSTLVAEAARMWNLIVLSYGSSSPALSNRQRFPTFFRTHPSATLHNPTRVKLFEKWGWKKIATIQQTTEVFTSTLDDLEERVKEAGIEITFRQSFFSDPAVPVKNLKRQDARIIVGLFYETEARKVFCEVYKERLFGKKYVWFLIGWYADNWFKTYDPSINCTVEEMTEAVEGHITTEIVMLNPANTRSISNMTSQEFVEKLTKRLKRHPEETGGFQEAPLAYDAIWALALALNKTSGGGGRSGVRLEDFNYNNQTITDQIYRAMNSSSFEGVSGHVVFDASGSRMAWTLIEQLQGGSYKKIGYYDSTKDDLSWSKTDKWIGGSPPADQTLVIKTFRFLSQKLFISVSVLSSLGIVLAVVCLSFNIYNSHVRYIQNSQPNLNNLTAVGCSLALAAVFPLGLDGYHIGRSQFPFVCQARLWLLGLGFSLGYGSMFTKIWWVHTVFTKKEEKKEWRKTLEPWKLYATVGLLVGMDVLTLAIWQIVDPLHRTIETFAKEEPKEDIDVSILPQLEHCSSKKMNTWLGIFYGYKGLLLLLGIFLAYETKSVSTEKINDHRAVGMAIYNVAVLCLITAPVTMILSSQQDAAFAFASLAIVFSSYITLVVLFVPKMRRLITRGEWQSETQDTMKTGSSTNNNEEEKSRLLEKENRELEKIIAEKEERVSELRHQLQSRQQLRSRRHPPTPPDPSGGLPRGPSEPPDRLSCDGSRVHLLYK
T2 sequence (O88871 41-940 partner): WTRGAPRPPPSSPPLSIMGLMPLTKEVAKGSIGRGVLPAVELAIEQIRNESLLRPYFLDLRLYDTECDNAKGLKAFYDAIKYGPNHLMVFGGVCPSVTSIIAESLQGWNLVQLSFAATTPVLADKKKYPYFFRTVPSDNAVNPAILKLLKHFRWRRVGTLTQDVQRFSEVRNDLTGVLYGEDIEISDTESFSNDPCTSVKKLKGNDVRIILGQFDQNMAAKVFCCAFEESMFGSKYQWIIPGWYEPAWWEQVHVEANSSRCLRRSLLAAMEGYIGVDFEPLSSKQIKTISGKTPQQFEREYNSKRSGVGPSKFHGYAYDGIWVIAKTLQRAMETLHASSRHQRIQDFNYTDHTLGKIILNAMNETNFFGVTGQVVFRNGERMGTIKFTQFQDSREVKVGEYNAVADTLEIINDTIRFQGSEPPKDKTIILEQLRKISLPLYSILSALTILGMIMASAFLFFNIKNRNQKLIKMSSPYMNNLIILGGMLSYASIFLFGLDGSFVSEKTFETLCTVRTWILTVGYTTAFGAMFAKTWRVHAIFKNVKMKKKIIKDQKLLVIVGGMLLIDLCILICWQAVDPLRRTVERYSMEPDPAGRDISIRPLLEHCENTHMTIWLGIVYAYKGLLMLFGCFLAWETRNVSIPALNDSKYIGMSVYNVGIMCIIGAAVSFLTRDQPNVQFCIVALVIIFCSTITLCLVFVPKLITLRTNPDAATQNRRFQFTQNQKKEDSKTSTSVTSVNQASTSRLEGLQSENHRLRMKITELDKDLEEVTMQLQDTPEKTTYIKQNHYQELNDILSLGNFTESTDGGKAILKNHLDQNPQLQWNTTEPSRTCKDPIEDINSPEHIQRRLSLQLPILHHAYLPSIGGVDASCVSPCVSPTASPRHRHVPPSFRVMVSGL
T3 sequence (P41144 whole entry): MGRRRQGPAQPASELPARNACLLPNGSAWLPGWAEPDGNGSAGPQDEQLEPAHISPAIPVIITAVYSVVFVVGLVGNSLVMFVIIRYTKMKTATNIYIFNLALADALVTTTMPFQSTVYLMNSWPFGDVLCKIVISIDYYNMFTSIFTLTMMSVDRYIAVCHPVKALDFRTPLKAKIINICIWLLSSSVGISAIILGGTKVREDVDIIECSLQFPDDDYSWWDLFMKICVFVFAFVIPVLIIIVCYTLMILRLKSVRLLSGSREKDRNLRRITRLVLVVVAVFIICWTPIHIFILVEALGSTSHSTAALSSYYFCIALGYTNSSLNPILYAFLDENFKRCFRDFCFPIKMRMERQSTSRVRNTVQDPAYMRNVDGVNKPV
T1 sequence (P33533 whole entry): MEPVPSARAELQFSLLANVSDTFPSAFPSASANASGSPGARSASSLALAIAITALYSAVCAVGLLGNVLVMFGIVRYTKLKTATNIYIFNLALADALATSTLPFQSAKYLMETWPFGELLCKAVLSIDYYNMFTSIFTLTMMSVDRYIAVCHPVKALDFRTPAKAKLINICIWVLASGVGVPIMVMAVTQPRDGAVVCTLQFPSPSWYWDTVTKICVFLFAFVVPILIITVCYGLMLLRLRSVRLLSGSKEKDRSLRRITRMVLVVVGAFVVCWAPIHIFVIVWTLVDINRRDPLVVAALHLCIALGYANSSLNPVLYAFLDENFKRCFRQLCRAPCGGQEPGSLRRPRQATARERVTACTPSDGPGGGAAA

Q: Which results are given for CC[C@@H]1[C@H]2CCCCN3[C@H]2[C@@H](C[C@H]3[C@@H]2C[C@H](C)C(=O)O2)[C@H]2[C@@H]1OC(=O)[C@H]2C [Compound A, Neotuberostemonine]?
A: % Antitussive Activity of Compound A ([1]; with Haloperidol (Dopamine D2 antagonist) 1 mg/kg sc, 45 min pretreatment, compound A ip 50 or 100 mg/kg): 115.21 ± 7.05%; % Antitussive Activity of Compound A ([1]; with Naloxone (nonselective opioid antagonist) 5 mg/kg sc 20 min after compound A ip (30 and 100 mg/kg)): 86.51 ± 11.57%; % Antitussive Activity of Compound A ([1]; with SCH 50911 (GABAB antagonist) 10 mg/kg sc, 40 min pretreatment, compound A ip 50 or 100 mg/kg): 83.25 ± 16.73%; % Antitussive Activity of Compound A ([1]; with WAY-100635 (5-HT1A antagonist) 1 mg/kg sc, 60 min pretreatment, compound A ip 50 or 100 mg/kg): 100.50 ± 1.67%; Affinity (δ2-opioid receptor): No; % Inhibition of Ligand Binding (average) (δ2-opioid receptor; duplicate): 8.32%; affinity to all receptors examined (in words) [2]: did not show any affinity; % Inhibition of Ligand Binding (average) (δ1-opioid receptor; duplicate): 5.95%; Affinity (δ1-opioid receptor): No; Affinity (Dopamine D2-receptor): ±; % Inhibition of Ligand Binding (average) (Dopamine D2-receptor; duplicate): 33.39%; Affinity (GABAB receptor): No; % Inhibition of Ligand Binding (average) (GABAB receptor; duplicate): 8.06%; Affinity (κ1-opioid receptor): No; % Inhibition of Ligand Binding (average) (κ1-opioid receptor; duplicate): 14.40%; Affinity (μ-opioid receptor): No; % Inhibition of Ligand Binding (average) (μ-opioid receptor; duplicate): 7.37%; Affinity (5HT1A receptor): No; % Inhibition of Ligand Binding (average) (5HT1A receptor; duplicate): −18.42%; cough episodes (result in words) ([3]; guinea pig): inhibited citric acid-induced cough in a dose-dependent manner; also recorded: significantly inhibited cough episodes in a dose-dependent manner; ED50 value (antitussive) ([3]; guinea pig): comparable; cough latency ([3]; doses of 50 and 100 mg/kg, intraperitoneal, guinea pig): significantly increased; rank order of antitussive potency [3]: A=D>C≈F≈H≈B; % Cough Episode (Composed with Vehicle Control) [3, 4]: 16.1 ± 7.3%; % Cough Episode (Composed with Vehicle Control) [3, 5]: 21.7 ± 8.9%

Q: How did the “cough episodes (result in words)” value ([3]; guinea pig) turn out when CC[C@@H]1[C@@H]2CCCCN3[C@@H]2[C@@H](C[C@H]3[C@@H]2C[C@H](C)C(=O)O2)[C@H]2[C@@H]1OC(=O)[C@H]2C [Compound B, Tuberostemonine J] was run?
A: marked reduction of cough episodes

Q: What about the “rank order of antitussive potency” value [3] of the same compound?
A: A=D>C≈F≈H≈B

Q: What about the “% Cough Episode (Composed with Vehicle Control)” value (“% Cough Episode” below) [3, 4] of the same compound?
A: 76.3 ± 14.7 (ip) %

Q: What does the source list for CC[C@@H]1[C@H]2CCCCN3[C@@H]2[C@@H](C[C@H]3[C@@H]2C[C@H](C)C(=O)O2)[C@H]2[C@@H]1OC(=O)[C@H]2C [Compound C, Tuberostemonine H]?
A: cough episodes (result in words) ([3]; guinea pig): marked reduction of cough episodes; rank order of antitussive potency [3]: A=D>C≈F≈H≈B; % Cough Episode (Composed with Vehicle Control) [3, 4]: 50.7 ± 16.6 (ip) %

Q: Which “cough episodes (result in words)” value ([3]; guinea pig) does the source give for CC[C@@H]1[C@H]2CCCCN3CC[C@@H]([C@H]4[C@@H]1OC(=O)[C@H]4C)[C@@H]23 [Compound D, Neostenine] here?
A: significantly inhibited cough episodes in a dose-dependent manner

Q: And the “rank order of antitussive potency” value [3]?
A: A=D>C≈F≈H≈B

Q: And the “% Cough Episode” value [3, 4]?
A: 29.9 ± 8.3 (ip) %

Q: How did the “% Cough Episode” value [3, 5] turn out when CC[C@H]1[C@H]2OC(=O)[C@@H](C)[C@H]2c2cc([C@H]3C[C@H](C)C(=O)O3)n3c2[C@H]1CCCC3 [Compound E, Epibisdehydrotuberostemonine J] was run?
A: 136.8 ± 25.6 (po) %

Q: How did the “cough episodes (result in words)” value ([3]; guinea pig) turn out when CC[C@@H]1[C@H]2CCCCN3CC[C@@H]([C@H]4[C@@H]1OC[C@H]4C)[C@@H]23 [Compound H, Neostenine-ether] was run?
A: marked reduction of cough episodes

Q: And the “rank order of antitussive potency” value [3]?
A: A=D>C≈F≈H≈B

Q: What about the “% Cough Episode” value [3, 4] of the same compound?
A: 54.4 ± 10.6 (ip) %

Q: How did the “ED50 value (antitussive)” value ([3]; guinea pig) turn out when COc1ccc2c3c1O[C@H]1[C@@H](O)C=C[C@H]4[C@@H](C2)N(C)CC[C@@]341 [codeine, reference compound] was run?
A: comparable

Q: With Neostenine-acid [Compound G] as the compound, how does the “% Cough Episode” value [3, 4] read?
A: 104.5 ± 20.4 (ip) %

Q: What does the source list for Neostenine-diol [Compound F]?
A: cough episodes (result in words) ([3]; guinea pig): marked reduction of cough episodes; rank order of antitussive potency [3]: A=D>C≈F≈H≈B; % Cough Episode (Composed with Vehicle Control) [3, 4]: 62.2 ± 10.8 (ip) %
